Data set [1] has as its target T1, NACP/α-synuclein (Homo sapiens, UniProt P37840). The experiment in a line: Iron-catalyzed oxidative reaction (metal ion plus hydrogen peroxide) aggregation of NACP/α-synuclein, immunoblotting. Type of data set: biochemical. On the set-up: which encodes full length NACP/α-synuclein 140; 6xHis (cleaved yes); made in house; host or cells: E. coli DH5α. The procedure: (§1) Prior to experimentation, each of the recombinant proteins need to be desalted by way of passage through PD 10 columns (Pharmacia, Piscataway, N.J.) in water and then adjusted to a final concentration of 5 μM. NACP/α-synuclein protein (1 μl) is incubated in a total volume of 20 μl of buffer containing 20 mM Tris-HCl, pH 7.4. To perform the immuno-blotting analysis, each sample is resolved by SDS-PAGE (15%) and blotted onto nitrocellulose membrane (Schleicher & Schuell, Keene, N.H.). The blotted membrane is blocked with Tris-Buffered saline (TBS; 20 mM Tris-HCl, pH 7.5 and 150 mM NaCl) containing 3% BSA, followed by incubation with anti-C-terminal rabbit polyclonal antibody (1:1000) in TBS containing 1% BSA. The blocked membrane is then incubated with peroxidase-labeled anti-rabbit IgG (Amersham) (1:1000) and visualized using the ECL immuno-blotting system (Amersham, Cleveland, Ohio), the use of which is well known to those in the art.
It was hypothesized that aggregation of NACP/α-synuclein might be linked to the iron-catalyzed oxidative reactions, represented in FIG. 2a, illustrating the hypothesis for the association of NACP/α-synuclein aggregation with iron-catalyzed oxidative reaction (Harber-Weiss reaction). In order to determine if an iron-catalyzed oxidative reaction promotes aggregation of NACP/α-synuclein, the human recombinant form of this molecule was incubated with ferrous ion (100 μM) and hydrogen peroxide. […] Ferrous ion was not included in lanes 8–10. The position of molecular weight markers (kD) are indicated on left). […] Other transition metals were also examined for their effect on NACP/α-synuclein aggregation.
A general note: Immunoblotting shows a protein as a band on a membrane.

The nature of data set [2]: Specificity of ferric ion-induced aggregation: recombinant synuclein proteins treated with ferric ion, immunoblot. Type of data set: physicochemical, human. The settings on record: 100 μM ferric ion. The method, then: (§2) The cells are harvested and re-suspended in 50 mM Tris-HCl, pH 8.5, containing protease inhibitors. Following sonication and centrifugation of the re-suspension, the supernatant is applied to a Ni-NTA column and eluted with 20 mM Tris-HCl, pH 8.5, containing 100 mM KCl, 100 mM imidazole, […] v/v glycerol and 10 mM β-mercaptoethanol. The eluted fusion protein is dialyzed against 50 mM Tris-HCl, pH 8.5, cleaved with recombinant TEV protease and again applied to a Ni-NTA column. The recombinant NACP/α-synuclein is isolated in the flow through fractions, pooled and stored at −20° C. until use.
as §1, with “The blocked membrane is then incubated with peroxidase-labeled anti-rabbit IgG (Amersham) (1:1000) and visualized using the ECL immuno-blotting system (Amersham, Cleveland, Ohio), the use of which is well known to those in the art.” left out

The nature of data set [3]: Thioflavine-S staining of ferric ion-induced in vitro aggregates. Type of data set: physicochemical, human. The procedure:
In order to determine if iron-induced NACP/α-synuclein aggregates display amyloid-like characteristics, Thioflavine-S staining is performed.
In order to determine whether the ferric-ion induced in vitro aggregates of NACP/α-synuclein display amyloid-like characteristics, Thioflavine-S staining experiments were performed.

Data set [4] can be described thus: Aggregation assay under high temperature conditions, SDS-PAGE analysis. The settings on record: 20 μM protein, 100 mM sodium acetate, pH 6.9, 65° C. Type of data set: physicochemical, human. The method, then:
(§3) In order to test the susceptibility of the newly constructed β-synuclein mutants to aggregation, an aggregation assay can be performed. To do this, 10–20 μM of each of the mutant proteins are incubated in a total volume of 20 μl with a final concentration of 100 mM sodium acetate, pH 6.9. Aggregation can be induced under a variety of conditions, for instance, low pH and high temperature. SDS-PAGE analysis/immunoblotting or Thioflavine-S staining provides means for evaluating the reacted samples, the methods of which are described above and well known to those in the art.
Recombinant proteins were produced using a standard E. coli system and high purity products were generated using SDS-PAGE analysis, seen as FIG. 4.
After 8 hours incubation, the bands corresponding to possible dimers became visible and, after 20 hours incubation, bands corresponding to dimers and higher smears in both the separating and stacking portions of the gels was observed.

The nature of data set [5]: Thioflavine-S staining of aggregates formed at pH 6.9, 65 C. The settings on record: pH 6.9, 65 C conditions. Type of data set: physicochemical, human. The procedure:
In order to determine whether the aggregates resulting from aggregation reactions of PROEX-1-β-synuclein 61 and PROEX-1-β-synuclein δ2 display amyloid-like characteristics, 10 μl aliquots of the protein preparations are obtained using the above-described procedures are pipetted onto glass slides and stained with Thioflavine-S. The results are visually analyzed using a confocal microscope, the method of which is well known to those in the art.

Data set [6] has as its target T2, β-synuclein δ2 (Homo sapiens, UniProt Q16143, A63V/F71V/H65N/INS70[…]/L66V/S64T/S72E).
T2 construct: 6xHis (cleaved yes); made in house; host or cells: E. coli
The data set is described as follows: Inhibition of high temperature aggregation by Congo red (β-synuclein δ2). The class given is biochemical. The settings on record: 20 μM protein, pH 6.9, 65° C., 20 hours, micromolar concentrations of Congo red. The method, then:
as §3
(§4) Since previous studies have shown that the aggregation of amyloidogenic proteins were to some extent inhibited by Congo red, increasing concentrations of Congo red were added in the present aggregation system. […] As is shown in FIG. 5, the monomer bands were slightly but surely stabilized by treatment with micromolar concentrations of Congo red, which is consistent with other reported studies.

Data set [7] has as its target T1, NACP/α-synuclein. The data set is described as follows: Inhibition of high temperature aggregation by Congo red (NACP/α-synuclein). The following applies: 20 μM protein, pH 6.9, 65° C., 20 hours, micromolar concentrations of Congo red. The class given is biochemical. Set-up: which encodes full length NACP/α-synuclein 140; 6xHis (cleaved yes); made in house; host or cells: E. coli. The method, then: as §3, §4

The target in data set [8] is T3, human recombinant NACP/α-synuclein 140 (Homo sapiens, UniProt P37840).
T3 construct: which encodes full length NACP/α-synuclein 140; 6xHis (cleaved yes); made in house; host or cells: E. coli DH5α
The data set is described as follows: Ferric ion-induced aggregation of NACP/α-synuclein 140, immunoblotting analysis. Type of data set: biochemical. The following applies: 4 hour incubation, pH 7.4, 37° C.; 0-1 mM ferric ion, concentration dependent. The method, then: as §2
as §1, with “The blocked membrane is then incubated with peroxidase-labeled anti-rabbit IgG (Amersham) (1:1000) and visualized using the ECL immuno-blotting system (Amersham, Cleveland, Ohio), the use of which is well known to those in the art.” left out

We go through 5 compounds from patent publication US7226746B1, “Method for screening for anti-amyloidogenic properties and method for treatment of neurodegenerative disease” (The Regents of the University of California, priority 1998, dated 2007).

As to `OO` [hydrogen peroxide], the “aggregation of NACP/α-synuclein with hydrogen peroxide in the presence of ferrous ion” value in data set [1] (NACP/α-synuclein 1 μM, ferrous ion 100 μM, 1 nM-100 μM H2O2) is given as “dose-dependent aggregation”. Besides, in data set [1] (no ferrous ion, 10-100 μM H2O2), the “aggregation of NACP/α-synuclein with hydrogen peroxide alone” value is listed as “no remarkable changes”.
For the compound “β-synuclein: human recombinant NACP/α-synuclein-related protein with a partially incomplete NAC domain; non-amyloidogenic”, the “aggregation of the protein on treatment with ferric ion” value in data set [2] is on record as “not aggregated”. Besides, in data set [3], the “Thioflavine-S reactivity of ferric ion-induced aggregates” value is on record as “not”. In addition, in data set [4], the “aggregation of the protein under high temperature conditions (SDS-PAGE)” value is on record as “showed no aggregation”. The “Thioflavine-S staining of the protein” value in data set [5] is recorded as “negative result”.
With `Nc1c(/N=N/c2ccc(-c3ccc(/N=N/c4cc(S(=O)(=O)O)c5ccccc5c4N)cc3)cc2)cc(S(=O)(=O)O)c2ccccc12` [Congo red], the “inhibition of aggregation of β-synuclein δ2” value in data set [6] is “partly inhibited aggregation”. Also, the “inhibition of aggregation of NACP/α-synuclein” value in data set [7] was “partly inhibited aggregation”.
Take `[Fe+3]` [ferric ion]: in data set [8], the “aggregation of NACP/α-synuclein 140 induced by the ion” value is recorded as “induced aggregation”.
Regarding manganese, the “aggregation of NACP/α-synuclein by other transition metals in the presence of hydrogen peroxide” value in data set [1] (in the presence of hydrogen peroxide) is on record as “failed to induce the aggregation”.
